Assay results from PubChem BioAssay AID1625 (Sanford-Burnham Center for Chemical Genomics, 2009).
pEC50: −log10 of the molar value. Calls of active or inactive are those of the source.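 The calls were made as follows: active = z-score above 3 at 5 µM with at least 500 cells counted in the well; inconclusive = wells under 500 cells, flagged as cytotoxic or low count; inactive = the rest.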

System: MIN6 insulin promoter-GFP reporter, high-content imaging
Assay: insulin promoter activators in MIN6 cells, imaging, high-content screening, mouse beta cells (AID 1625)

| Compound | pEC50 | EC50 |
| --- | --- | --- |
| CCN(CC)c1ccc(/C=C(/C#N)c2nc3ccc(C)cc3[nH]2)c(OC(C)C)c1 | 5.54 |  |
| COc1ccc2c(C)cc(SCC(=O)N(C)C3CCS(=O)(=O)C3)nc2c1 (stereo not given) |  | > 16 µM (inactive) |
| CCC(C)N1C(=O)/C(=C/c2c(NCCCOC(C)C)nc3c(C)cccn3c2=O)SC1=S (stereo not given) | 5.55 |  |
| CCOC(=O)c1sc2cc([N+](=O)[O-])cc(SCC(C)C)c2c1N |  | > 16 µM (inactive) |
| C/C(=N\Nc1ccc([N+](=O)[O-])cc1)c1cc2ccccc2o1 |  | > 16 µM (inactive) |
| CN1/C(=C\C=C2/C(=O)Oc3ccccc3C2=O)C(C)(C)c2ccccc21 | 5.59 |  |
| CCCCCn1nc(-c2ccccc2)c2nc3ccccc3nc21 | 5.06 |  |
| O=c1oc2c3c4c(cc2c(C(F)(F)F)c1CCN1CCOCC1)CCCN4CCC3 | 5.22 |  |
| N#C/C(=C\c1ccc(N2CCCCC2)o1)C(N)=O |  | 10.8 µM (inactive) |
| O=[N+]([O-])c1ccc(N(c2ccccc2)c2ccccc2)cc1 |  | > 16 µM (inactive) |
| Cc1ccc(N2C(=O)C3C(C(=O)c4ccccc4)=NN(c4ccccc4)C3C2=O)cc1 (stereo not given) |  | 12.6 µM (inactive) |
| CC(=O)c1c(N2CCOCC2)[nH]c(-c2ccccc2)nc1=S |  | 13.5 µM (inactive) |
| CC1=C/C(=C\C=C(C#N)C#N)N(C)c2ccccc21 |  | > 16 µM (inactive) |
| CCOCCCNc1nc2c(C)cccn2c(=O)c1/C=C1\SC(=S)N(CC(C)C)C1=O |  | > 16 µM (inactive) |
| CCCOc1cc(N(CC)CC)ccc1/C=C(/C#N)c1nc2ccc(C)cc2[nH]1 | 5.00 |  |
| Nc1ccc2c(c1)Cc1cc([N+](=O)[O-])ccc1-2 | 5.02 |  |
| Cc1c(N=C2N=C(NC(=O)c3cccs3)c3ccccc32)c(=O)n(-c2ccccc2)n1C |  | 13.9 µM (inactive) |
| C=CCN1C(=O)/C(=C/C=C2/N(CC)c3ccc(S(=O)(=O)N(C)C)cc3N2CC)SC1=S |  | > 16 µM (inactive) |
| Cc1ccc(Nc2nc(Cl)c(C=O)s2)cc1Cl |  | > 16 µM (inactive) |
| CCCCN1C(=O)/C(=C/C=C2/CC(C)(C)CN2C)SC1=S | 5.17 |  |

| Compound | pEC50 | EC50 |
| --- | --- | --- |
| C=CCN1C=CC(=CC=C(C#N)C#N)C=C1 |  | 10.4 µM (inactive) |
| Nc1c(C(=O)C2CC2)sc2nc(-c3cccs3)cc(C(F)(F)F)c12 | 5.38 |  |
| CC(=O)Nc1cccc(C(=O)/C=C/c2ccc(N(C)C)cc2)c1 |  | 12.9 µM (inactive) |
| CN1CCN(c2ccc(/C=C3\C(=O)NC(=S)N(c4cccc(Br)c4)C3=O)o2)CC1 |  | > 16 µM (inactive) |
| CN1C(=S)N(c2cccnc2)C(=O)/C1=C\c1ccc(N(C)C)cc1 |  | > 16 µM (inactive) |
| Cc1ccc(/C(C#N)=C\c2ccc(N3CCOCC3)o2)cc1 |  | > 16 µM (inactive) |
| C=CCN1C(=O)/C(=C\C=C2\N(C)c3ccccc3C2(C)C)SC1=S |  | > 16 µM (inactive) |
| COc1cc([C@@H]2[C@H]3CN(C)CC=C3C(C#N)=C(N)C2(C#N)C#N)cc2c1OCO2 | 5.06 |  |
| N#C/C(=C/c1ccc(-c2ccc(S(N)(=O)=O)cc2)o1)c1nc2ccccc2s1 |  | 10 µM (inactive) |
| O=[N+]([O-])c1ccc(-c2ccc(/C=N/Nc3nc(NCc4ccccc4)nc(N4CCOCC4)n3)o2)cc1 |  | > 16 µM (inactive) |
| CCN(CC)c1ccc2cc(-c3nc(-c4ccc(OC)cc4)cs3)c(=O)oc2c1 | > 6.60 |  |
| CC1CCCCC1NC(=O)COC(=O)c1c2c(nc3ccccc13)/C(=C/c1ccco1)CC2 (stereo not given) |  | > 16 µM (inactive) |
| O=[N+]([O-])c1ccc(C2=NN(c3ccccc3)C(c3ccco3)C2)cc1 (stereo not given) | 5.04 |  |
| Cc1oc(C)c2c(=O)ccc3c(c12)OC(N)=C(C#N)C3c1ccccc1Cl (stereo not given) |  | 11.4 µM (inactive) |
| Cc1ccc(CNc2ccc3c(c2)OCO3)cc1 |  | > 16 µM (inactive) |
| CC(=O)Nc1sc(/C(C#N)=C/c2ccc(Cl)c(Cl)c2)nc1-c1ccc(C)cc1 |  | > 16 µM (inactive) |
| Cc1oc(C)c2c(=O)ccc3c(c12)OC(N)=C(C#N)C3c1ccc(F)cc1 (stereo not given) |  | > 16 µM (inactive) |
| Cc1c(-c2ccc(O)cc2)nc2nc(-c3ccccc3)c(-c3ccccc3)nn12 | 5.27 |  |
| CCN(CC)C(=O)c1sc2nc(-c3cccs3)cc(-c3cccs3)c2c1N |  | > 16 µM (inactive) |
| COc1cc([C@@H]2[C@H]3CNCC=C3C(C#N)=C(N)C2(C#N)C#N)ccc1OC(C)C |  | > 16 µM (inactive) |

| Compound | pEC50 | EC50 |
| --- | --- | --- |
| O=C(OCCN1C(=O)c2cccc3c(N4CCOCC4)ccc(c23)C1=O)c1ccc(Cl)cc1Cl |  | 12.1 µM (inactive) |
| Nc1c(C(=O)Nc2nccs2)sc2nc(-c3cccs3)cc(C(F)(F)F)c12 | 5.23 |  |
| COCCNC(=S)N/N=C/c1ccc(-c2ccc([N+](=O)[O-])cc2)o1 |  | > 16 µM (inactive) |
| CC1=CN2C(=N)/C(=C/c3ccc([N+](=O)[O-])o3)C(=O)N=C2S1 |  | > 16 µM (inactive) |
| O=S(=O)(Nc1cc2nc3ccccc3nc2n1Cc1ccccc1)c1ccc(Cl)cc1 | 5.14 |  |
| CCCCN1C(=O)/C(=C/C=C2\SCCN2C)SC1=S | 5.04 |  |
| N#Cc1c(-c2ccco2)cc(C2CC2)nc1SCC(=O)c1ccccc1 |  | > 16 µM (inactive) |
| CSc1c(C#N)c(N)nc2sc(C(=O)c3ccc(Cl)c(Cl)c3)c(N)c12 |  | > 16 µM (inactive) |
| Cc1[nH]c2ccccc2c1/C=N/Nc1ccc([N+](=O)[O-])cc1 | 5.03 |  |
| N#CC1=C(N)C(C#N)(C#N)[C@H](c2ccoc2)[C@H]2CN(Cc3ccccc3)CC=C12 | 5.01 |  |
| CCN(CC)c1ccc2cc(-c3nc4ccccc4[nH]3)c(=O)oc2c1 | 6.55 |  |
| COCCN1C(=O)/C(=C/c2ccc(N3CCCC3)cc2)SC1=S |  | 12 µM (inactive) |
| COc1cccc(C2C3CN(C)CC=C3C(C#N)=C(N)C2(C#N)C#N)c1OC (stereo not given) |  | 12.3 µM (inactive) |
| COc1cc2c3nnc(-c4ccc(F)cc4)c-3cn(Cc3ccccc3)c2cc1OC | 5.54 |  |
| O=C(C1=C(O)C(=O)N(c2nccs2)C1c1ccccc1)c1cc2ccccc2o1 (stereo not given) |  | 13.3 µM (inactive) |
| CCOC(=O)c1nn(-c2ccc(Cl)cc2Cl)c(=N)c(C#N)c1C | 5.14 |  |
| CCN(CC)c1ccc2cc(-c3nnc(-c4ccccc4)o3)c(=O)oc2c1 | 5.54 |  |
| C=CCN1C(=O)c2cccc3c(N4CCCCC4)ccc(c23)C1=O | 5.27 |  |
| CCOC(=O)C1=C(C)NC(=O)NC1c1ccc(N2CCC(c3ccccc3)=N2)cc1 (stereo not given) |  | > 16 µM (inactive) |
| COc1cccc(/C=N/NC(=O)c2oc3nc(-c4ccccc4)cc(-c4ccco4)c3c2N)c1 |  | > 16 µM (inactive) |
